Results taken from the supplement of paper PMC10307832.

Tests used:
Experiment in all cases: relative viability (nuclei count vs DMSO), 5 days (fraction); higher = more cells survive
[1] = compound: CC1=C(C(=O)N2C=CSC2=N1)CCN3CCC(=C(C4=CC=CC=C4)C5=CC=C(C=C5)F)CC3 + CC1(C)CCC(c2ccc(Cl)cc2)=C(CN2CCN(c3ccc(C(=O)NS(=O)(=O)c4ccc(N[C@H](CCN5CCOCC5)CSc5ccccc5)c(S(=O)(=O)C(F)(F)F)c4)cc3)CC2)C1 [Navitoclax] (partner 0.5 µM)
Method in brief: (§1)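 After 5 days of treatment, lung cancer cells in 1536-well plates were fixed and stained in a single step (final 0.05% Triton X-100, 1% formaldehyde, 1 ug/ml Hoechst) and their nuclei counted on 4× images. Treatment had been applied by pin tool the day after seeding as one drug alone or as a fixed anchor-drug dose with five library-drug doses (not always all listed) in √10 steps. Relative viability is the nuclei count of treated wells divided by that of vehicle wells, and values are medians of duplicate plates.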

[2] = compound: CC1=C(C(=O)N2C=CSC2=N1)CCN3CCC(=C(C4=CC=CC=C4)C5=CC=C(C=C5)F)CC3 + C[C@@H](Oc1cc(-c2cnn(C3CCNCC3)c2)cnc1N)c1c(Cl)ccc(F)c1Cl [Crizotinib] (partner 1 µM)
Method in brief: as §1

[3] = compound: CC1=C(C(=O)N2C=CSC2=N1)CCN3CCC(=C(C4=CC=CC=C4)C5=CC=C(C=C5)F)CC3 + N=C(N)NC(=N)NCCc1ccccc1 [Phenformin] (partner 250 µM)
Method in brief: as §1

[4] = compound: CC1=C(C(=O)N2C=CSC2=N1)CCN3CCC(=C(C4=CC=CC=C4)C5=CC=C(C=C5)F)CC3 + Nc1ncn([C@H]2C[C@H](O)[C@@H](CO)O2)c(=O)n1 [Decitabine] (partner 2 µM)
Method in brief: as §1

Cell Line	relative viability ([1]; first compound 0.08 µM)	relative viability ([1]; first compound 0.253 µM)	relative viability ([1]; first compound 0.8 µM)	relative viability ([1]; first compound 2.53 µM)	relative viability ([1]; first compound 8 µM)	relative viability ([2]; first compound 0.08 µM)	relative viability ([2]; first compound 0.253 µM)	relative viability ([2]; first compound 0.8 µM)	relative viability ([2]; first compound 2.53 µM)	relative viability ([2]; first compound 8 µM)	relative viability ([3]; first compound 0.08 µM)	relative viability ([3]; first compound 0.253 µM)	relative viability ([3]; first compound 0.8 µM)	relative viability ([3]; first compound 2.53 µM)	relative viability ([3]; first compound 8 µM)	relative viability ([4]; first compound 0.08 µM)	relative viability ([4]; first compound 0.253 µM)	relative viability ([4]; first compound 0.8 µM)	relative viability ([4]; first compound 2.53 µM)	relative viability ([4]; first compound 8 µM)
LU99A	0.919	0.867	0.734	0.929	0.631	0.602	0.636	0.558	0.625	0.444	0.777	0.846	0.767	0.841	0.658	1.18	0.988	0.763	0.989	0.907
LXF-289	0.917	1.19	0.947	0.97	0.816	0.911	0.93	0.891	0.797	0.773	0.463	0.542	0.508	0.482	0.376	0.381	0.43	0.406	0.426	0.349
NCI-H23	0.722	0.862	0.776	0.863	0.489	0.467	0.505	0.454	0.372	0.404	0.757	0.668	0.782	0.773	0.564	0.355	0.308	0.332	0.323	0.119
NCI-H322M	0.987	1.29	1.34	1.36	0.889	0.732	0.948	0.878	0.696	0.834	0.745	0.785	0.737	0.773	0.873	0.719	0.781	0.688	0.814	0.767
NCI-H441		0.694	0.686	0.638	0.371		0.866	0.773	0.872	0.549	0.797	0.759	0.918	0.737	0.667	0.263	0.255	0.242	0.247	0.239
NCI-H460	0.787	0.957	1.55	1.56	0.0629	0.597	1.16	1.09	0.794	0.188	0.474	0.562	0.611	0.548	0.113	0.581	0.445	0.555	0.572	0.157
NCI-H520	1.04	0.939	1.21	1.35	0.701	0.679	0.608	0.858	0.58	0.476	0.784	0.643	0.836	0.539	0.468	0.471	0.565	0.519	0.515	0.445
NCI-H596	0.85	1.17	1.04	1.1	0.556	1.01	1.13	0.957	1.03	0.949	0.702	0.826	0.915	0.74	0.578	0.908	0.939	1.06	1.01	0.761
NCI-H647	1.12	1.13	1.11	1.2	0.476	1.09	1.61	1.01	1.34	0.476	0.573	0.644	0.54	0.438	0.348	0.389	0.412	0.378	0.505	0.297
NCI-H727	0.346	0.481	0.444	0.48	0.383	0.846	0.934	0.741	0.948	0.59	0.593	0.55	0.481	0.464	0.47	0.861	0.974	0.888	1.03	0.792
NCI-H838	0.986	1.08	1.15	1.62	0.494	0.583	0.854	0.837	0.925	0.616	0.629	0.533	0.569	0.576	0.464	0.488	0.459	0.472	0.547	0.414
NCI-H1355	0.976	0.984	0.996	1.09	0.787	1.12	1.16	1.04	1.17	0.712	0.428	0.442	0.441	0.427	0.391	0.38	0.382	0.369	0.354	0.368
NCI-H1437		0.924	1.09	1.44	0.693		0.902	0.978	1.03	0.604	0.303	0.362	0.334	0.288	0.308	0.568	0.62	0.616	0.613	0.39
NCI-H1650	0.992	1.2	1.16	1.44	0.865	0.892	1.14	0.957	1.01	0.872	0.494	0.345	0.383	0.58	0.314	0.372	0.485	0.505	0.435	0.329
NCI-H1651	0.984	0.654	1.01	1.29	0.404	0.83	0.829	0.891	0.971	0.773	0.341	0.321	0.352	0.304	0.283	0.644	0.604	0.587	0.597	0.526
NCI-H1666	0.991	0.854	1.04	1.16	0.836	0.909	0.939	0.839	0.937	0.866	0.531	0.609	0.581	0.591	0.527	0.714	0.786	0.678	0.873	0.616
